The molecules below were run against T1, human EP3 receptor (Homo sapiens, UniProt P43115) (assay: Cellular in vitro assay for determining EP3 receptor activity (human EP3 cell line, sulprostone-stimulated calcium luminescence)). Details: CHO cells expressing human EP3 and mitochondrial Clytin; antagonist mode, sulprostone at EC50; read-out: EP3 CHO mtCLY ANTAG IC50.
T1 construct: expressed in transfected cells; host or cells: CHO K1 (Chinese Hamster Ovary), stably co-transfected with Galpha16 and mitochondrial clytin
T1 sequence (P43115 1-390): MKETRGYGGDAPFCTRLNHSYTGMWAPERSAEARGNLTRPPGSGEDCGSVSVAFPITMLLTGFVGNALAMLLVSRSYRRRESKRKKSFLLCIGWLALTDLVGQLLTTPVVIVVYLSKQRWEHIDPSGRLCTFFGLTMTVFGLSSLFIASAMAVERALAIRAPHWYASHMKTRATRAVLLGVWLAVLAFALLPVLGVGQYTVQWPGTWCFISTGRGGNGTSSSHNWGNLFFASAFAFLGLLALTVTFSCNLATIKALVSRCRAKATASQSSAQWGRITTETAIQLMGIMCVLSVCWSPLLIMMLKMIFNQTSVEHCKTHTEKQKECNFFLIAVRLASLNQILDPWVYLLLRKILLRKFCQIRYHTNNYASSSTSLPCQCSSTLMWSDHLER
Format: cell-based
Outline: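 Antagonist activity was measured as inhibition of the luminescent calcium signal elicited by EC50 sulprostone, following 10 min compound pretreatment. The cell line was recombinant CHO K1 co-expressing human EP3, Gα16 and the photoprotein Clytin, reconstituted with coelenterazine.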

Structure (SMILES) | IC50
Cc1cccc2ncc(-c3cn4nc(C(=O)N[C@H](CCO)c5ccc(F)cc5)c(C(C)C)c4c(=O)[nH]3)cc12 [Example 1-56, N-[(1R)-1-(4-Fluorophenyl)-3-hydroxypropyl]-6-(5-methylquinolin-3-yl)-4-oxo-3-(propan-2-yl)-4,5-dihydropyrazolo[1,5-a]pyrazine-2-carboxamide] | 0.985 nM
N#Cc1c(C(=O)N[C@@H](CCO)c2ccc(F)cc2)nn2cc(-c3ccc4ccccc4c3)[nH]c(=O)c12 [Example 1-72, 3-Cyano-N-[(1S)-1-(4-fluorophenyl)-3-hydroxpropyl]-6-(naphthalen-2-yl)-4-oxo-4,5-dihydropyrazolo[1,5-a]pyrazine-2-carboxamide] | 6.55 nM
Cc1cccc2ncc(-c3cn4nc(C(=O)NCc5ccncc5)c(C(C)C)c4c(=O)[nH]3)cc12 [Example 4-25, 6-(5-Methylquinolin-3-yl)-4-oxo-3-(propan-2-yl)-N-[(pyridin-4-yl)methyl]-4,5-dihydropyrazolo[1,5-a]pyrazine-2-carboxamide] | 3.25 nM
Cc1ccc(-c2cn3nc(C(=O)N[C@H](CCO)c4ccc(F)cc4)c(C(F)(F)F)c3c(=O)[nH]2)cc1C [Example 1-94, 6-(3,4-Dimethylphenyl)-N-[(1R)-1-(4-fluorophenyl)-3-hydroxpropyl]-4-oxo-3-(trifluoromethyl)-4,5-dihydropyrazolo[1,5-a]pyrazine-2-carboxamide] | 0.765 nM
O=C(NC(CO)c1cc(Cl)cc(Cl)c1)c1cc2c(=O)[nH]c(-c3ccc4ccccc4c3)cn2n1 (stereo not shown) [Example 2-26, N-[1-(3,5-Dichlorophenyl)-2-hydroxyethyl]-6-(2-naphthyl)-4-oxo-4,5-dihydropyrazolo[1,5-a]pyrazine-2-carboxamide] | 2.65 nM
CC(NC(=O)c1cc2c(=O)[nH]c(-c3ccc4ccccc4c3)cn2n1)c1ccccc1OC(F)F (stereo not shown) [Example 2-50, N-{1-[2-(Difluormethoxy)phenyl]ethyl}-6-(2-naphthyl)-4-oxo-4,5-dihydropyrazolo[1,5-a]pyrazine-2-carboxamide] | 1.15 nM
Cc1c(C(=O)Nc2ccnn2C(C)C)nn2c(C)c(-c3ccc4ccccc4c3)[nH]c(=O)c12 [Example 3-6, 3,7-Dimethyl-6-(naphthalen-2-yl)-4-oxo-N-[1-(propan-2-yl)-1H-pyrazol-5-yl]-4,5-dihydropyrazolo[1,5-a]pyrazine-2-carboxamide] | 4.75 nM
C[C@@H](NC(=O)c1cc2c(=O)[nH]c(-c3ccc4ccccc4c3)cn2n1)c1cccc2ccccc12 [Example 2-27, 6-(2-Naphthyl)-N-[(7R)-1-(1-naphthyl)ethyl]-4-oxo-4,5-dihydropyrazolo[1,5-a]pyrazine-2-carboxamide] | 3.25 nM
Cc1c(C(=O)NC2CCc3ccccc32)nn2c(C)c(-c3ccc4ccccc4c3)[nH]c(=O)c12 (stereo not shown) [Example 3-75, N-(2,3-Dihydro-1H-inden-1-yl)-3,7-dimethyl-6-(2-naphthyl)-4-oxo-4,5-dihydropyrazolo[1,5-a]pyrazine-2-carboxamide] | 6.45 nM
COc1ccc2c(c1)C(NC(=O)c1cc3c(=O)[nH]c(-c4ccc5ccccc5c4)cn3n1)CC(C)(C)O2 (stereo not shown) [Example 2-16, N-[6-Methoxy-2,2-dimethyl-3,4-dihydro-2H-chromen-4-yl]-6-(2-naphthyl)-4-oxo-4,5-dihydropyrazolo[1,5-a]pyrazine-2-carboxamide] | 6.2 nM
Cc1ccc(-c2cn3nc(C(=O)N[C@H](C)CO)c(C4CC4)c3c(=O)[nH]2)cc1C [Example 1-154, 3-Cyclopropyl-6-(3,4-dimethylphenyl)-N-[(2R)-1-hydroxpropan-2-yl]-4-oxo-4,5-dihydropyrazolo-[1,5-a]pyrazine-2-carboxamide] | 2.6 nM
Cc1cc(-c2cn3nc(C(=O)N[C@@H](c4ccc(F)cc4)C(C)(C)O)c(C4CC4)c3c(=O)[nH]2)ccc1C(F)(F)F [Example 1-132, 3-Cyclopropyl-N-[(1S)-1-(4-fluorophenyl)-2-hydroxy-2-methylpropyl]-6-[3-methyl-4-(trifluoromethyl)phenyl]-4-oxo-4,5-dihydropyrazolo[1,5-a]pyrazine-2-carboxamide] | 4.05 nM
Cc1ccc(-c2cn3nc(C(=O)N[C@H](C)c4ccc(F)cc4)c(C(F)(F)F)c3c(=O)[nH]2)cc1C [Example 1-95, 6-(3,4-Dimethylphenyl)-N-[(1R)-1-(4-fluorophenyl)ethyl]-4-oxo-3-(trifluoromethyl)-4,5-dihydropyrazolo[1,5-a]pyrazine-2-carboxamide] | 1.7 nM
CC(C)(O)[C@@H](NC(=O)c1cc2c(=O)[nH]c(-c3ccc4c(c3)CCCC4)cn2n1)c1ccc(F)cc1 [Example 1-133, N-[(1S)-1-(4-Fluorophenyl)-2-hydroxy-2-methylpropyl]-4-oxo-6-(5,6,7,8-tetrahydronaphthalen-2-yl)-4,5-dihydropyrazolo[1,5-a]pyrazine-2-carboxamide] | 2.8 nM
Cc1ccc(-c2cn3nc(C(=O)N[C@@H](C)CO)c(C4CC4)c3c(=O)[nH]2)cc1C [Example 1-155, 3-Cyclopropyl-6-(3,4-dimethylphenyl)-N-[(2S)-1-hydroxpropan-2-yl]-4-oxo-4,5-dihydropyrazolo-[1,5-a]pyrazine-2-carboxamide] | 1.5 nM
Cc1ccc(-c2cn3nc(C(=O)N[C@H](CCO)c4ccc(F)cc4)cc3c(=O)[nH]2)cc1C [Example 1-39, 6-(3,4-Dimethylphenyl)-N-[(1R)-1-(4-fluorophenyl)-3-hydroxpropyl]-4-oxo-4,5-dihydropyrazolo-[1,5-a]pyrazine-2-carboxamide] | 0.265 nM
Cc1ccc(-c2[nH]c(=O)c3c(C(F)(F)F)c(C(=O)N[C@H](CCO)c4ccc(F)cc4)nn3c2C)cc1C [Example 1-122, 6-(3,4-Dimethylphenyl)-N-[(1R)-1-(4-fluorophenyl)-3-hydroxpropyl]-7-methyl-4-oxo-3-(trifluoromethyl)-4,5-dihydropyrazolo[1,5-a]pyrazine-2-carboxamide] | 4.13 nM

Next, values leading:

IC50 | Structure (SMILES)
6.3 nM | CC(C)(O)[C@@H](NC(=O)c1nn2cc(-c3ccc(Cl)c(F)c3)[nH]c(=O)c2c1C(F)F)c1ccc(F)cc1 [6-632]
2.15 nM | Cc1ccc(-c2cn3nc(C(=O)NC(c4ccc(C(F)(F)F)cc4)C(C)(C)O)c(C4CC4)c3c(=O)[nH]2)cc1C (single isomer, unassigned) [6-458]
4.05 nM | CC(C)(O)[C@@H](NC(=O)c1nn2cc(-c3ccc(Cl)c(F)c3)[nH]c(=O)c2c1C1CC1(F)F)c1ccc(F)cc1 (stereo partly shown) [6-564]
2.1 nM | Cn1cnc2cc(-c3cn4nc(C(=O)N[C@@H](c5ccc(F)cc5)C(C)(C)O)c(C5CC5)c4c(=O)[nH]3)ccc21 [6-599]
2.37 nM | COc1ccc(CCNC(=O)c2cc3c(=O)[nH]c(-c4ccc(C)c(Cl)c4)cn3n2)cc1OC [6-15]
8.43 nM | Cc1cc(-c2cn3nc(C(=O)NC4(c5ccc(F)cc5)CN(C)C4)c(C4CC4)c3c(=O)[nH]2)c(F)cc1Cl [6-593]
0.55 nM | Cc1ccc(-c2cn3nc(C(=O)N[C@H](C)C4CC4)c(C4CC4)c3c(=O)[nH]2)cc1C [6-438]
5.7 nM | CCN1CCC(NC(=O)c2nn3cc(-c4ccc(Cl)c(C)c4)[nH]c(=O)c3c2C2CC2)(C(F)(F)F)C1 (single isomer, unassigned) [6-293]
1.8 nM | Cc1ccc(-c2cn3nc(C(=O)N[C@@H](C)c4ccc(F)cc4)cc3c(=O)[nH]2)cc1Cl [6-82]
9.97 nM | CC(C)(O)[C@@H](NC(=O)c1nn2cc(-c3ccc(Cl)c(F)c3)[nH]c(=O)c2c1C(F)(F)F)c1ccc(F)cc1 [6-649]
6.03 nM | O=C(NCCC(F)(F)F)c1cc2c(=O)[nH]c(-c3ccc4cccc(F)c4c3)cn2n1 [6-41]
5.4 nM | CC(C)(O)[C@@H](NC(=O)c1nn2cc(-c3ccc4c(c3)OCCO4)[nH]c(=O)c2c1C1CC1)c1ccc(F)cc1 [6-466]
6.67 nM | CC[C@@H](C)NC(=O)c1nn2cc(-c3ccc(Cl)c(C)c3)[nH]c(=O)c2c1C(F)(F)F [6-227]
9.43 nM | C[C@@H](CO)NC(=O)c1nn2cc(-c3ccc4ccccc4c3)[nH]c(=O)c2c1C(F)(F)F [6-526]
9.55 nM | Cc1ccc(-c2cn3nc(C(=O)NC(CO)C(F)(F)F)c(C(F)(F)F)c3c(=O)[nH]2)cc1Cl (single isomer, unassigned) [6-162]
7.1 nM | Cc1ccc(-c2cn3nc(C(=O)NC(CN(C)C)c4ccc(F)cc4)c(C4CC4)c3c(=O)[nH]2)cc1C (single isomer, unassigned) [6-445]
1.16 nM | C[C@H](NC(=O)c1nn2cc(-c3cc(F)c(Cl)c(F)c3)[nH]c(=O)c2c1C1CC1)C1CC1 [6-472]
1.7 nM | Cc1ccc(-c2cn3nc(C(=O)NCCN(CC(F)F)C4CC4)c(C4CC4)c3c(=O)[nH]2)cc1C [6-460]
1.49 nM | O=C(N[C@@H](c1ccc(F)cc1)C(F)(F)CO)c1nn2cc(-c3ccc(Cl)c(Cl)c3)[nH]c(=O)c2c1C1CC1 [6-421]
2 nM | Cc1ccc(-c2cn3nc(C(=O)NCC(O)C(F)(F)F)c(C4CC4)c3c(=O)[nH]2)cc1C(F)(F)F (racemic) [6-243]
3.3 nM | Cc1ccc(-c2cn3nc(C(=O)NC4CCN(CC(F)(F)F)C4)c(C4CC4)c3c(=O)[nH]2)cc1F (single isomer, unassigned) [6-391]
0.78 nM | Cc1ccc(-c2cn3nc(C(=O)NC(c4ccccc4)C(O)C(F)(F)F)cc3c(=O)[nH]2)cc1C (stereo not shown) [6-350]
5.45 nM | Cc1cc(-c2cn3nc(C(=O)NC(CO)c4ccc(F)cc4)c(C4CC4)c3c(=O)[nH]2)ccc1C(F)(F)F (racemic) [6-129]

Source: patent US20220324865A1 (Bayer Aktiengesellschaft, priority 2018, published 2022)
